Structures are written as SMILES.

The series can be described thus: Accelerated stability testing at 40° C. and 75% relative humidity, solid form evaluated by X-ray diffraction. The series is classed as physicochemical. The conditions noted are these: storage time not stated (spectra taken later in time, FIG. 1). As to the method:
The term “stable” as used herein refers to less than about 5% conversion of the amorphous form of losartan to a crystalline form of losartan when stored at 40° C. and 75 percent relative humidity for three months.
The amorphous solids of the following examples were evaluated for the presence of crystals and/or other degradative products using X-ray diffraction (XRD) techniques, supplemented with infrared and differential scanning calorimetry. The examples are meant to further exemplify the invention and are not intended to limit the scope of the invention.

As to `CCCCc1nc(Cl)c(CO)n1Cc1ccc(-c2ccccc2-c2nn[nH]n2)cc1` [Example 1, losartan potassium], the “Solid form (amorphous/crystalline) by XRD after accelerated stability conditions” value is “almost all of the solid material converted to the crystalline form”.
